Experimental data from patent EP4631957A1, “PEPTIDE FOR CARTILAGE REGENERATION, AND USES THEREOF” (Caregen Co., Ltd., priority 2022, dated 2024).
Where a SMILES comes first, the peptide text is derived from it. Where no end group is shown, it is not given here.

System: C28/I2 cells
Experiment: CCK-8 cytotoxicity assay in human-derived chondrocytes
Assay type: cell-based
Details: peptide at different concentrations, 3 days, read at 450 nm, FIG. 1 and FIG. 2
Experimental: The cytotoxicity of Peptide-1 or Peptide-2 upon addition to human-derived chondrocytes (C28/I2, human chondrocyte cell line) was analyzed using a CCK-8 assay.
Specifically, human-derived chondrocytes were seeded in a 96-well plate at a density of 3 × 10^3 cells/well and cultured in DMEM medium (cat. 11995-065, Gibco) for 24 hours. […] Meanwhile, as a negative control group (CON), an experimental group to which the peptide was not added was used.

TAVRVG [Peptide-2]
toxicity in human-derived chondrocytes (CCK-8 activity): did not exhibit toxicity

N=C(N)NCCC[C@H](N)C(=O)N[C@@H](Cc1ccc(O)cc1)C(=O)N[C@@H](Cc1ccccc1)C(=O)O [Peptide-1, Arg(R)-Tyr(Y)-Phe(F)] (H-Arg-Tyr-Phe-OH)
toxicity in human-derived chondrocytes (CCK-8 activity): did not exhibit toxicity
